Experimental data reported in ChEMBL document CHEMBL1177877, “Synthesis and in vitro evaluation of substituted pyrimido[5,4-d]pyrimidines as a novel class of anti-Mycobacterium tuberculosis agents” (Eur J Med Chem, 2010).
≈ marks a conversion by molar mass, not a printed value.

Assays:
[1] = system: Mycobacterium tuberculosis; assay: Antimycobacterial activity against Mycobacterium tuberculosis H37Rv; type: functional, organism-based
[2] = Selectivity index, EC50 for against african green monkey Vero cells to IC50 for Mycobacterium tuberculosis H37Rv; type: functional
Vero = assay: Cytotoxicity against african green monkey Vero cells; type: cell-based; settings: Chlorocebus sabaeus

Q: Which IC50 [1] does the source give for `N=c1c2ncnc(Nc3ccccc3)c2ncn1NC(=O)c1ccccc1` here?
A: Its IC50 is 3.65 µg/mL (≈ 10.2 µM).

Q: What about the IC90 [1] of the same molecule?
A: The IC90 was 17.4 µM.

Q: What about the Ratio [2] of the same molecule?
A: The Ratio was 0.38.

Q: What about the EC50 (Vero) of the same molecule?
A: The EC50 was 2.35 µg/mL (≈ 6.58 µM).

Q: With `CC(=O)Nn1cnc2c(Nc3ccc(C#N)cc3)ncnc2c1=N` as the molecule, how does the IC50 [1] read?
A: Its IC50 is 42.1 µg/mL (≈ 131 µM).

Q: And the IC90 [1]?
A: Its IC90 is > 311 µM.

Q: Which results are given for `N=c1c2ncnc(Nc3ccccc3)c2ncn1NC(=O)c1ccncc1`?
A: IC50 [1]: 4.3 µg/mL (≈ 12 µM); IC90 [1]: 21 µM; Ratio [2]: 0.57; EC50 (Vero): 4.37 µg/mL (≈ 12.2 µM)

Q: Which results are given for `CC(=O)Nn1cnc2c(Nc3ccccc3)ncnc2c1=N`?
A: IC50 [1]: 44.9 µg/mL (≈ 152 µM); IC90 [1]: > 314 µM

Q: For `N=c1c2ncnc(Nc3ccc(F)cc3)c2ncn1NC(=O)c1ccco1`, which IC50 [1] is on record?
A: Its IC50 is 2.17 µg/mL (≈ 5.94 µM).

Q: What about the IC90 [1] of the same molecule?
A: Its IC90 is 9.77 µM.

Q: With `COc1ccc(Nc2ncnc3c(=N)n(NC(=O)c4ccccc4)cnc23)cc1` as the molecule, how does the IC50 [1] read?
A: Its IC50 is 4.11 µg/mL (≈ 10.6 µM).

Q: What about the IC90 [1] of the same molecule?
A: Its IC90 is 23.4 µM.

Q: What about the Ratio [2] of the same molecule?
A: The Ratio was 0.23.

Q: And the EC50 (Vero)?
A: Its EC50 is 2.12 µg/mL (≈ 5.47 µM).

Q: For `N=c1c2ncnc(Nc3ccccc3)c2ncn1NC(=O)c1ccco1`, which IC50 [1] is on record?
A: The IC50 was 3.16 µg/mL (≈ 9.1 µM).

Q: And the IC90 [1]?
A: The IC90 was 14 µM.

Q: Which results are given for `COc1ccc(Nc2ncnc3c(=N)n(NC(=O)c4ccncc4)cnc23)cc1`?
A: IC50 [1]: 1.59 µg/mL (≈ 4.09 µM); IC90 [1]: 9.49 µM; Ratio [2]: 0.27; EC50 (Vero): 1.15 µg/mL (≈ 2.96 µM)

Q: What does the source list for `COc1ccc(Nc2ncnc3c(=N)n(NC(=O)c4ccco4)cnc23)cc1`?
A: IC50 [1]: 3.56 µg/mL (≈ 9.43 µM); IC90 [1]: 261 µM

Q: With `CC(=O)Nn1cnc2c(Nc3ccc(F)cc3)ncnc2c1=N` as the molecule, how does the IC50 [1] read?
A: Its IC50 is 18.7 µg/mL (≈ 59.7 µM).

Q: What about the IC90 [1] of the same molecule?
A: Its IC90 is 91.4 µM.

Q: For `N#Cc1ccc(Nc2ncnc3c(=N)n(NC(=O)c4ccncc4)cnc23)cc1`, which IC50 [1] is on record?
A: Its IC50 is 17.2 µg/mL (≈ 44.9 µM).

Q: And the IC90 [1]?
A: Its IC90 is > 240 µM.

Q: Which IC50 [1] does the source give for `N=c1c2ncnc(Nc3ccc(F)cc3)c2ncn1NC(=O)c1ccccc1` here?
A: The IC50 was 2.92 µg/mL (≈ 7.78 µM).

Q: And the IC90 [1]?
A: Its IC90 is 13.5 µM.

Q: What about the Ratio [2] of the same molecule?
A: Its Ratio is 0.6.

Q: What about the EC50 (Vero) of the same molecule?
A: Its EC50 is 3.05 µg/mL (≈ 8.13 µM).

Q: With `N#Cc1ccc(Nc2ncnc3c(=N)n(NC(=O)c4ccccc4)cnc23)cc1` as the molecule, how does the IC50 [1] read?
A: The IC50 was 2.47 µg/mL (≈ 6.46 µM).

Q: And the IC90 [1]?
A: The IC90 was 36.1 µM.

Q: Which IC50 [1] does the source give for `N=c1c2ncnc(Nc3ccc(F)cc3)c2ncn1NC(=O)c1ccncc1` here?
A: The IC50 was 0.91 µg/mL (≈ 2.42 µM).

Q: And the IC90 [1]?
A: Its IC90 is 9.12 µM.

Q: And the Ratio [2]?
A: The Ratio was 0.43.

Q: What about the EC50 (Vero) of the same molecule?
A: The EC50 was 1.53 µg/mL (≈ 4.07 µM).

Q: Which IC50 [1] does the source give for `COc1ccc(Nc2ncnc3c(=N)n(NC(C)=O)cnc23)cc1` here?
A: Its IC50 is 46.5 µg/mL (≈ 143 µM).

Q: What about the IC90 [1] of the same molecule?
A: The IC90 was > 298 µM.
